# Like-named read-outs stand apart in the source and are kept apart here.
# Assays:
# [1] = test system: VEGFR-2; details: reported chalcone VEGFR-2 inhibitors, Figure 1; cited from earlier work
# [2] = test system: human cervical squamous cell carcinoma cell line SiHa; test: CCK-8 cytotoxicity assay, SiHa cells; assay type: cell-based; details: CCK-8, 48 h incubation, mean ± SD, n = 3
# Description: (§1) The SiHa, K562, B16 and HK-2 cells were obtained from Wuhan Pricella Biotechnology Co., Ltd. (Wuhan, China). […] 2–5 × 10^3 cells were added to each well of a 96-well plate and incubated for 12 h, followed by the addition of the tested compounds. After incubation for 48 h, 10 μL of the CCK-8 solution was added to each well and incubated for another 2 h. The absorbance of each well was measured at 450 nm using an enzyme-linked immunosorbent assay (ELISA) reader. The experiments were replicated three times. The inhibition rate of cancer cells was calculated using the Formula (1). The half-maximal inhibitory concentration (IC50) value was calculated using GraphPad Prism 8.0 software.
# [3] = test system: human chronic myeloid leukemia cell line K562; test: CCK-8 cytotoxicity assay, K562 cells; assay type: cell-based; details: CCK-8, 48 h incubation, mean ± SD, n = 3
# Description: as §1
# [4] = test system: mouse melanoma cell line B16; test: CCK-8 cytotoxicity assay, B16 cells; assay type: cell-based; details: CCK-8, 48 h incubation, mean ± SD, n = 3
# Description: as §1
# [5] = CCK-8 cytotoxicity assay, HK-2 cells; assay type: cell-based, human
# Description: as §1, with “The cytotoxicity of synthesized compounds against HK-2 cells was also detected. […] The SiHa,” for “The SiHa,”
# [6] = test system: human renal epithelial cell line HK-2; test: CCK-8 cytotoxicity assay, HK-2 cells; assay type: cell-based; details: Homo sapiens, Epithelial cell; CCK-8, 48 h incubation, mean ± SD, n = 3
# Description: as §1, with “The cytotoxicity of synthesized compounds against HK-2 cells was also detected. […] The SiHa,” for “The SiHa,”
# [7] = target: T1, VEGFR-2 (KDR) protein kinase (Homo sapiens, UniProt P35968); test: VEGFR-2 (KDR) Kinase Assay Kit enzyme inhibition assay; assay type: biochemical; details: Kinase-Glo MAX, 30 °C 45 min, mean ± SD, n = 3
# T1 construct: purchased BPS Biosciences, San Diego, CA, USA
# T1 sequence (P35968 20-1356): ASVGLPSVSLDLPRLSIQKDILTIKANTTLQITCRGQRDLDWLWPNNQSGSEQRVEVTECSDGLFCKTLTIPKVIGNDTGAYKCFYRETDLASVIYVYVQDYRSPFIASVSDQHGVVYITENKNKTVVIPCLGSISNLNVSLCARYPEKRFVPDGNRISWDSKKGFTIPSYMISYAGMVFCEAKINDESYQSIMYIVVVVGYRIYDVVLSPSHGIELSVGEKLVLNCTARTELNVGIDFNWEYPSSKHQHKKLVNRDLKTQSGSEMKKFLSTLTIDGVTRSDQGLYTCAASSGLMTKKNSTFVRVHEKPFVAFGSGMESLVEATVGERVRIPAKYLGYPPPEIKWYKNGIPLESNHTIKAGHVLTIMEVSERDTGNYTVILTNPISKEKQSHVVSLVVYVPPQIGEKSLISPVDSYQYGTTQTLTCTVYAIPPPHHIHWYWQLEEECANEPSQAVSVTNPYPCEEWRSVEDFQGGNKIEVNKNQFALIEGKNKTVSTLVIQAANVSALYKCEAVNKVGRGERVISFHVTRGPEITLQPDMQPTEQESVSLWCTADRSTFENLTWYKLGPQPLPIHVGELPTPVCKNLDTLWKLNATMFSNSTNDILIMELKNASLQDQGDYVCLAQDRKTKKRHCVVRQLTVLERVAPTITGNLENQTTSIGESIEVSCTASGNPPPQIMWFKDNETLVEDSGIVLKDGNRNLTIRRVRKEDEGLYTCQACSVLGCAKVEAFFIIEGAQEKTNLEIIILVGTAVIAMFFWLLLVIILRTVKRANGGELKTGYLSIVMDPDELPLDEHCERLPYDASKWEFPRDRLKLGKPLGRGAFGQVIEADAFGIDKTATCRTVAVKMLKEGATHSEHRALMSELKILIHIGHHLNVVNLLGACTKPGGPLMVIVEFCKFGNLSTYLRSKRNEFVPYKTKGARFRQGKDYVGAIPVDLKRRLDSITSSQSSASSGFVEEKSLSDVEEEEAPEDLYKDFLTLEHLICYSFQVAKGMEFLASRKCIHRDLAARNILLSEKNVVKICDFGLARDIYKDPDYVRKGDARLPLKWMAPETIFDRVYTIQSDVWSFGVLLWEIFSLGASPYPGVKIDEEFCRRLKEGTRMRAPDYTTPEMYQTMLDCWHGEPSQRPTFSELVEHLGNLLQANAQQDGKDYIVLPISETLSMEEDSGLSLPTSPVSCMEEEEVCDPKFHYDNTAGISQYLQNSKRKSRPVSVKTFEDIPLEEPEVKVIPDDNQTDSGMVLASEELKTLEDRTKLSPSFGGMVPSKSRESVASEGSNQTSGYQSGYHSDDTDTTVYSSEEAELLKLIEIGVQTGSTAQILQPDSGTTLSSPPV
# Description: Many studies have shown that abnormal VEGFR-2 signaling could induce proliferation of cervical squamous cell carcinoma cells, myeloid leukemia cancer cells, and melanoma cells. […] A VEGFR-2 (KDR) Kinase Assay Kit (BPS Biosciences, San Diego, CA, USA) was used to conduct a VEGFR-2 inhibition assay following the manufacturer’s protocol. Briefly, kinase buffer and ATP and PTK substrate (Poly-Glu,Tyr 4:1) were diluted with distilled water to prepare a master mix solution. The master mix solution, test sample, and VEGFR-2 (KDR) protein kinase (2 ng/μL) were added to a 96-well plate and incubated at 30 °C for 45 min. After incubation, Kinase-Glo™ MAX (BPS Biosciences) reagent was added to each well, and incubated for 15 min at room temperature. Then it was immediately detected with an ELISA reader. The experiments were replicated three times.
# [8] = test system: K562 cells; test: Annexin V apoptosis assay by flow cytometry; assay type: cell-based, human
# Text: Enhancing apoptotic cell death is a crucial way for anticancer drugs to eliminate cancer cells.
# The sample was centrifuged to isolate the cells and the kit instructions were followed for subsequent processing. Finally, apoptosis was quantified using a flow cytometer (Cytek Northern Light 3 Laser 16V-14B-8R, Wuxi, China). The experiments were replicated three times.
# [9] = test system: K562 cells; test: Cell cycle analysis, PI staining, flow cytometry; assay type: cell-based, human; details: 5 μM, 24 h
# Description: Cytotoxic compounds often inhibit cell proliferation by arresting the cell cycle at a specific phase.
# The sample was then centrifuged (2000 rpm for 5 min), and the supernatant was aspirated. The fixed cells were resuspended in 0.5 mL of PI solution, cultured at 37 °C in the dark for 30 min, and then cultured at 4 °C in the dark for another 30 min Finally, the cell cycle sample was determined with a flow cytometer (Cytek Northern Light 3 laser 16V-14B-8R, Wuxi, China). The experiments were replicated three times.
# [10] = K562, 1.25, 2.5 and 5.0 μM, 24 h
smiles,measurement,setting,value
CNC(=O)c1cc(Oc2ccc(C(=O)/C=C/c3cc(OC)c(OC)c(OC)c3)cc2)ccn1 [II],IC50,[1],3200 nM
"O=C(Nc1ccc(C(=O)/C=C/c2cc(F)cc(F)c2)cc1)Nc1ccc(Cl)c(C(F)(F)F)c1 [Compound 2l, (E)-1-(4-chloro-3-(trifluoromethyl)phenyl)-3-(4-(3-(3,5-difluorophenyl)acryloyl)phenyl)urea]",IC50,[2],1250 ± 130 nM
same,IC50,"[2]; Homo sapiens, SiHa, 48 h",1250 to 1390 nM
same,IC50,[3],1300 ± 70 nM
same,IC50,"[3]; Homo sapiens, K562, 48 h",910 ± 70 nM
same,IC50,[4],1390 ± 210 nM
same,IC50,"[4]; Mus musculus, B16, 48 h",1250 to 1390 nM
same,selectivity ratio at 48 h,"[5]; human (HK-2), mouse (B16), HK-2 cells versus B16 cells, HK-2 vs B16, read-out: selectivity toward B16, fold decrease in cytotoxicity against HK-2",18.2
same,selectivity ratio at 48 h,"[5]; human, HK-2 cells versus K562 cells, HK-2 vs K562, read-out: selectivity toward K562, fold decrease in cytotoxicity against HK-2",19.5
same,selectivity ratio at 48 h,"[5]; human, HK-2 cells versus SiHa cells, HK-2 vs SiHa, read-out: selectivity toward SiHa, fold decrease in cytotoxicity against HK-2",20.3
same,IC50,[6],25400 ± 1470 nM
same,IC50,[7],420 ± 30 nM
same,viability at 1.25 µM,"[8]; Homo sapiens, K562, 1.25 μM, plot in Figure 2, read-out: Q4 viable cells",92.8%
same,viability at 2.5 µM,"[8]; Homo sapiens, K562, 2.5 μM, plot in Figure 2, read-out: Q4 viable cells",90.5%
same,viability at 5 µM,"[8]; Homo sapiens, K562, 5.0 μM, plot in Figure 2, read-out: Q4 viable cells",38.8%
same,early apoptosis,"[8]; K562, 1.25 μM, 24 h",5.80%
same,early apoptosis,"[8]; K562, 2.5 μM, 24 h",8.34%
same,early apoptosis,"[8]; K562, 5.0 μM, 24 h",57.79%
same,late apoptosis,[8]; [10],increased in a dose-dependent manner
same,necrosis of K562 cells,[8]; [10],Almost no necrosis
same,percentage of K562 cells in the G2/M phase,[9]; DMSO 8.00%,3.05%
same,percentage of K562 cells in the S phase,[9]; DMSO 43.34%,43.83%
same,percentage of K562 cells in the G1 phase,[9]; DMSO 48.66%,53.12%
COc1cc(/C=C/C(=O)c2ccc(N3CCNCC3)cc2)ccc1F [I],IC50,[1],570 nM
